From ChEMBL document CHEMBL3797111, “Substituted Indazoles as Nav1.7 Blockers for the Treatment of Pain” (J Med Chem, 2016)

Assays:
Assay type in all cases: ADME, organism-based
Conditions in all cases: in vivo
[1] = Bioavailability in Sprague-Dawley rat by HPLC-MS/MS analysis
Plasma [2] = assay: Plasma concentration in monoiodoacetate-induced osteoarthritis rat model at 10 mg/kg, po
Plasma [3] = assay: Plasma concentration in monoiodoacetate-induced osteoarthritis rat model at 30 mg/kg, po
Plasma [4] = assay: Plasma concentration in monoiodoacetate-induced osteoarthritis rat model at 3 mg/kg, po

| SMILES | bioavailability [1] [%] | Cp (Plasma [2]) [µg/mL] | Cp (Plasma [3]) [µg/mL] | Cp (Plasma [4]) [µg/mL] |
| --- | --- | --- | --- | --- |
| O=c1[nH]ccn1CCOc1nn(-c2ccccc2F)c2ccc(F)cc12 | 35 |  |  |  |
| O=C1NCCN1CCOc1nn(-c2ccc(F)cc2F)c2ccc(F)cc12 | 71 |  |  |  |
| Fc1ccc2c(c1)c(OCCn1ccnc1)nn2-c1ccccc1F | 28 |  |  |  |
| O=C(CN1CCN(c2cccc3c2cnn3-c2ccccc2F)C1=O)N1CC[C@H](F)C1 | 83 | 6.8 | 10.5 | 2.7 |
| CC(Oc1nn(-c2ccccc2F)c2ccc(F)cc12)C(=O)N1CCOCC1 (configuration not stated) | 27 |  |  |  |

Next, values leading:

| bioavailability [1] [%] | Cp (Plasma [2]) [µg/mL] | Cp (Plasma [3]) [µg/mL] | Cp (Plasma [4]) [µg/mL] | SMILES |
| --- | --- | --- | --- | --- |
| 84 |  |  |  | O=C1CN(c2cccc3c2cnn3-c2ccccc2F)CCN1CC(=O)N1CC[C@H](F)C1 |
| 82 |  |  |  | CC(C)CC(=O)CN1CCN(c2cccc3c2cnn3-c2ccccc2F)C1=O |
| 54 |  |  |  | O=C1NCCN1CCOc1nn(-c2ccc(F)cc2)c2ccc(F)cc12 |
| 22 |  |  |  | O=C(COc1nn(-c2ccccc2F)c2ccc(F)cc12)N1CCOCC1 |
| 17 | 0.38 | 1.05 | 0.05 | O=C1NCCN1CCOc1nn(-c2ccccc2F)c2ccc(F)cc12 |
| 94 |  |  |  | O=C(CN1CCN(c2cccc3c2cnn3-c2ccccc2F)C1=O)N1CCCC1 |
